≈ marks a conversion by molar mass, not a printed value. Like-named read-outs stand apart in the source and are kept apart here. Residues, ends and D or L forms follow the SMILES beside them.
Tests used:
[1] = test system: seven bacteria (V. parahaemolyticus, V. fluvialis, V. alginolyticus, E. coli, A. hydrophila, S. aureus, S. pyogenes); test: MIC summarised over the seven bacteria (GB, average MIC, fold change); type: cell-based; conditions: for GB: summary of the MICs over the seven bacteria, footnote b not given; for decrease of antibacterial activity relative to L1: from MICs of Table 3, except for S.pyogenes
Experimental: (§1) Seven bacteria including Vibrio parahaemolyticus, Vibrio fluvialis, Vibrio alginolyticus, Escherichia coli, Aeromonas hydrophila, Staphylococcus aureus and Streptococcus pyogenes were grown in LB medium at 30 °C and diluted to 10^6 CFU/mL in 0.01 M, pH 7.6 PBS. Peptides were diluted in PBS. The bacteria and diluted peptides were mixed in equal volumes, and then incubated at 30 °C for 2 h. […] Experiments were carried out in triplicate and repeated at least three times. Data are presented as mean ± standard deviation. GraphPad prism 6 was used to analyze the data with the statistical significance determined by one-way ANOVA and Student’s t test, and all experiments were carried out in triplicate.

[2] = test system: Vibrio parahaemolyticus; test: Minimal inhibitory concentration (MIC); type: cell-based; conditions: Gram negative; bacteria 10^6 CFU/mL in 0.01 M PBS pH 7.6 mixed with equal volume of peptide in PBS, 30 °C 2 h, plated on LB agar 30 °C overnight; triplicate, repeated at least three times
Experimental: as §1

[3] = test system: Vibrio fluvialis; type: cell-based
Experimental: as §1

[4] = test system: Vibrio alginolyticus; type: cell-based
Experimental: as §1

[5] = test system: Aeromonas hydrophila; type: cell-based
Experimental: as §1

[6] = test system: Escherichia coli; type: cell-based
Experimental: as §1

[7] = test system: Streptococcus pyogenes; type: cell-based
Experimental: as §1

[8] = test system: Staphylococcus aureus; type: cell-based
Experimental: as §1

[9] = not given; remark: listed apart in the source
[10] = not given; remark: listed apart in the source
[11] = not given; remark: listed apart in the source
[12] = Gram negative, bacteria 10^6 CFU/mL in 0.01 M PBS pH 7.6 mixed with equal volume of peptide in PBS, 30 °C 2 h, plated on LB agar 30 °C overnight, triplicate, repeated at least three times
[13] = Gram positive, bacteria 10^6 CFU/mL in 0.01 M PBS pH 7.6 mixed with equal volume of peptide in PBS, 30 °C 2 h, plated on LB agar 30 °C overnight, triplicate, repeated at least three times

SMILES	GB [1] [µg/mL]	MIC V. parahaemolyticus [2] [µg/mL]	MIC V. fluvialis [3, 12] [µg/mL]	MIC V. alginolyticus [4, 12] [µg/mL]	MIC A. hydrophila ([5]; Gram negative (Table 2), bacteria 10^6 CFU/mL in 0.01 M PBS pH 7.6 mixed with equal volume of peptide in PBS, 30 °C 2 h, plated on LB agar 30 °C overnight, triplicate, repeated at least three times) [µg/mL]	MIC E. coli [6, 12] [µg/mL]	MIC S. pyogenes [7, 13] [µg/mL]	MIC S. aureus [8, 13] [µg/mL]	β-turns content [%]	random coil content [9] [%]	MIC V. fluvialis ([3]; 2 h, pH 7.6) [µg/mL]	MIC V. alginolyticus ([4]; 2 h, pH 7.6) [µg/mL]	MIC A. hydrophila ([5]; 2 h, pH 7.6) [µg/mL]	MIC E. coli ([6]; 2 h, pH 7.6) [µg/mL]	MIC S. pyogenes ([7]; 2 h, pH 7.6) [µg/mL]	MIC S. aureus ([8]; 2 h, pH 7.6) [µg/mL]	β-strand content [10] [%]	α-helical content [11] [%]	average MIC relative to the average MIC of L1 ([1]; over the seven bacteria)	decrease of antibacterial activity relative to L1 [1]
NC[C@H]1O[C@H](O[C@H]2[C@H](O)[C@@H](O[C@H]3O[C@H](CO)[C@@H](O)[C@H](N)[C@H]3O)[C@H](N)C[C@@H]2N)[C@H](O)[C@@H](O)[C@@H]1O [Kanamycin, reference compound]	1.1	1 (≈ 2.06 µM)	1 (≈ 2.06 µM)	0.5 (≈ 1.03 µM)	1 (≈ 2.06 µM)	2 (≈ 4.13 µM)	1 (≈ 2.06 µM)	2 (≈ 4.13 µM)												
CC[C@H](C)[C@H](NC(=O)[C@H](CCCCN)NC(=O)[C@H](Cc1c[nH]cn1)NC(=O)[C@H](CC(C)C)NC(=O)[C@H](CC(C)C)NC(=O)[C@H](Cc1ccccc1)NC(=O)[C@H](CC(N)=O)NC(=O)[C@@H](N)C(C)C)C(=O)N[C@@H](Cc1ccc(O)cc1)C(=O)NCC(=O)N[C@@H](CC(N)=O)C(=O)N[C@H](C(=O)N[C@@H](CCCNC(=N)N)C(=O)N[C@@H](Cc1ccc(O)cc1)C(=O)N[C@@H](CO)C(N)=O)[C@@H](C)CC [L1] (H-VNFLLHKIYGNIRYS-NH2)		31.2 (≈ 17 µM)							24	33.4	62.5 (≈ 34 µM)	3.9 (≈ 2.12 µM)	3.9 (≈ 2.12 µM)	3.9 (≈ 2.12 µM)	62.5 (≈ 34 µM)	62.5 (≈ 34 µM)	11.2	34.6		
CC(C)C[C@H](NC(=O)[C@H](CCCCN)NC(=O)[C@H](CCC(N)=O)NC(=O)[C@@H](NC(=O)[C@H](C)NC(=O)[C@H](CCC(=O)O)NC(=O)CNC(=O)CN)C(C)C)C(=O)N[C@H](C(=O)N[C@@H](CCCNC(=N)N)C(=O)N[C@@H](CCC(=O)O)C(=O)N[C@H](C(=O)N[C@@H](CCCCN)C(=O)N[C@@H](CC(=O)O)C(=O)NCC(N)=O)C(C)C)C(C)C [L2] (H-GGEAVQKLVREVKDG-NH2; N-terminus and C-terminus assumed)	205.1	250 (≈ 158 µM)									125 (≈ 78.9 µM)	125 (≈ 78.9 µM)	250 (≈ 158 µM)	> 250	250 (≈ 158 µM)	> 250			tenfold	
CC[C@H](C)[C@H](NC(=O)[C@H](CCCNC(=N)N)NC(=O)[C@H](CO)NC(=O)[C@H](CCC(=O)O)NC(=O)[C@@H](NC(=O)[C@@H](NC(=O)[C@H](CC(C)C)NC(=O)[C@H](CC(C)C)NC(=O)[C@H](CC(=O)O)NC(=O)[C@H](CCCNC(=N)N)NC(=O)[C@@H](NC(=O)[C@H](CCCNC(=N)N)NC(=O)[C@H](C)NC(=O)[C@@H](NC(=O)CN)C(C)C)[C@@H](C)CC)[C@@H](C)CC)[C@@H](C)CC)C(N)=O [L8] (H-GVARIRDLLIIESRI-NH2; N-terminus and C-terminus assumed)	185.8	250 (≈ 145 µM)									250 (≈ 145 µM)	250 (≈ 145 µM)	31.3 (≈ 18.2 µM)	> 250	250 (≈ 145 µM)	250 (≈ 145 µM)				
CC[C@H](C)[C@H](NC(=O)[C@H](C)NC(=O)[C@H](CC(=O)O)NC(=O)[C@H](CCCNC(=N)N)NC(=O)[C@@H](NC(=O)[C@@H](N)CCCNC(=N)N)[C@@H](C)CC)C(=O)N[C@@H](C)C(=O)N[C@@H](Cc1c[nH]cn1)C(=O)NCC(=O)N[C@@H](Cc1ccc(O)cc1)C(=O)N[C@H](C(=O)N[C@H](C(=O)N[C@@H](CC(=O)O)C(=O)N[C@@H](CCCCN)C(=O)N[C@H](C(N)=O)C(C)C)C(C)C)[C@@H](C)CC [L10] (H-RIRDAIAHGYIVDKV-NH2)	113.3	250 (≈ 145 µM)									125 (≈ 72.5 µM)	31.3 (≈ 18.1 µM)	31.3 (≈ 18.1 µM)	> 250	125 (≈ 72.5 µM)	> 250				
CC[C@H](C)[C@H](NC(=O)[C@H](Cc1c[nH]cn1)NC(=O)[C@H](C)NC(=O)[C@@H](NC(=O)[C@H](CC(N)=O)NC(=O)[C@H](Cc1c[nH]cn1)NC(=O)[C@H](CC(C)C)NC(=O)[C@H](C)NC(=O)CNC(=O)[C@H](Cc1ccc(O)cc1)NC(=O)[C@@H](N)Cc1ccc(O)cc1)[C@@H](C)O)C(=O)N[C@H](C(=O)N[C@@H](CC(C)C)C(=O)NCC(=O)N[C@@H](CCCNC(=N)N)C(N)=O)C(C)C [L12] (H-YYGALHNTAHIVLGR-NH2)	125.0	250 (≈ 148 µM)									250 (≈ 148 µM)	15.6 (≈ 9.26 µM)	125 (≈ 74.2 µM)	125 (≈ 74.2 µM)	125 (≈ 74.2 µM)	> 250				
CC[C@H](C)[C@H](NC(=O)[C@H](CCCCN)NC(=O)[C@H](Cc1c[nH]cn1)NC(=O)[C@H](CC(C)C)NC(=O)[C@H](CC(C)C)NC(=O)CNC(=O)[C@H](CC(N)=O)NC(=O)[C@@H](N)C(C)C)C(=O)N[C@@H](Cc1ccc(O)cc1)C(=O)NCC(=O)N[C@@H](CC(N)=O)C(=O)N[C@H](C(=O)N[C@@H](CCCNC(=N)N)C(=O)N[C@@H](Cc1ccc(O)cc1)C(=O)N[C@@H](CO)C(N)=O)[C@@H](C)CC [M1] (H-VNGLLHKIYGNIRYS-NH2)		62.5 (≈ 35.8 µM)									250 (≈ 143 µM)	250 (≈ 143 µM)	15.6 (≈ 8.93 µM)	15.6 (≈ 8.93 µM)	15.6 (≈ 8.93 µM)	> 250				2- to 64 fold
CC[C@H](C)[C@H](NC(=O)[C@H](CC(N)=O)NC(=O)[C@H](CC(=O)O)NC(=O)[C@H](Cc1ccc(O)cc1)NC(=O)[C@@H](NC(=O)[C@H](CCCCN)NC(=O)[C@H](Cc1c[nH]cn1)NC(=O)[C@H](CC(C)C)NC(=O)[C@H](CC(C)C)NC(=O)[C@H](Cc1ccccc1)NC(=O)[C@H](CC(N)=O)NC(=O)[C@@H](N)C(C)C)[C@@H](C)CC)C(=O)N[C@@H](CCCNC(=N)N)C(=O)N[C@@H](Cc1ccc(O)cc1)C(=O)N[C@@H](CO)C(N)=O [M2] (H-VNFLLHKIYDNIRYS-NH2)	69.0	62.5 (≈ 33 µM)									> 250	> 250	15.6 (≈ 8.24 µM)	7.8 (≈ 4.12 µM)	62.5 (≈ 33 µM)	> 250				2- to 64 fold
CC[C@H](C)[C@H](NC(=O)[C@H](CCCCN)NC(=O)[C@H](Cc1c[nH]cn1)NC(=O)[C@H](CC(C)C)NC(=O)[C@H](CC(C)C)NC(=O)[C@H](Cc1ccccc1)NC(=O)[C@H](CC(N)=O)NC(=O)[C@@H](N)C(C)C)C(=O)N[C@@H](Cc1ccc(O)cc1)C(=O)NCC(=O)N[C@@H](CC(N)=O)C(=O)N[C@H](C(=O)N[C@@H](CCCNC(=N)N)C(=O)N[C@@H](CC(=O)O)C(=O)N[C@@H](CO)C(N)=O)[C@@H](C)CC [M3] (H-VNFLLHKIYGNIRDS-NH2)	14.2	31.2 (≈ 17.4 µM)									62.5 (≈ 35 µM)	3.9 (≈ 2.18 µM)	3.9 (≈ 2.18 µM)	3.9 (≈ 2.18 µM)	62.5 (≈ 35 µM)	62.5 (≈ 35 µM)				no change

— article PMC6060862, “Prediction and characterization of a novel hemocyanin-derived antimicrobial peptide from shrimp Litopenaeus vannamei” (Amino Acids, 2018)
